Positions of bridges follow the written chain, without caps; N, C: chain ends. Non-standard residues stand in square brackets, D forms with d. Residues, ends and D or L forms follow the SMILES beside them. Trp(1-CH2COOH) = N[C@@H](Cc1cn(CC(=O)O)c2ccccc12)C(=O)O; Hyp = O=C(O)[C@@H]1C[C@@H](O)CN1; Aad = N[C@@H](CCCC(=O)O)C(=O)O; NMeNle = CCCC[C@H](NC)C(=O)O; Pip = O=C(O)[C@@H]1CCCCN1; NMeA = CN[C@@H](C)C(=O)O; Orn = NCCC[C@H](N)C(=O)O; Dab = NCC[C@H](N)C(=O)O; Dap = NC[C@H](N)C(=O)O; AEA = NCCOCC(=O)O; Ava = NCCCCC(=O)O
Biological target: T1, PD-1-Ig binding to PD-L1-TVMV-His (PD-L1-His) (Homo sapiens, UniProt Q9NZQ7)
T1 construct: hPDL1(19-239)-TVMV-His; made in house; host or cells: HEK293T cells
Assay: PD-1/PD-L1 Homogenous Time-Resolved Fluorescence (HTRF) binding assay
Details: PD-1-Ig (20 nM) / PD-L1-His (10 nM); numeric values
Summary of the method: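 HTRF competition: compound pre-incubated 15 min with PD-L1-His (10 nM final), then PD-1-Ig (20 nM final) added for 15 min in dPBS, 0.1% BSA, 0.05% Tween-20. Detection with Eu-cryptate anti-Ig (1 nM) and APC anti-His (20 nM) antibodies.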

T1 sequence (Q9NZQ7 with tags, fused parts or gaps): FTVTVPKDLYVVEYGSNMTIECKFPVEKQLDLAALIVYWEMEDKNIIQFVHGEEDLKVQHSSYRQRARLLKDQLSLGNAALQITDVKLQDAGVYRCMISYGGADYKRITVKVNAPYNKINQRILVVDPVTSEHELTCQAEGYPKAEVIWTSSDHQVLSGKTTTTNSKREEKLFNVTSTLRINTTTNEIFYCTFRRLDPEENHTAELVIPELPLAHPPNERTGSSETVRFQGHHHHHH

IC50 | SMILES
765 nM | CCCC[C@H]1C(=O)N(C)[C@@H](CCCC)C(=O)N[C@@H](CC(C)C)C(=O)NCCCCC(=O)N[C@@H](Cc2ccc(O)cc2)C(=O)N(C)[C@@H](C)C(=O)N[C@@H](CC(=O)O)C(=O)N2CCC[C@H]2C(=O)N[C@@H](Cc2c[nH]cn2)C(=O)N[C@@H](CCCCN)C(=O)N2C[C@H](O)C[C@H]2C(=O)N[C@@H](Cc2c[nH]c3ccccc23)C(=O)N[C@@H](CCCCN)C(=O)N[C@@H](Cc2cn(CC(=O)O)c3ccccc23)C(=O)N1C [Example 10509] (cyclo([Ava]Y[NMeA]DPHK[Hyp]WK[Trp(1-CH2COOH)][NMeNle][NMeNle]L))
354 nM | CCCC[C@H]1C(=O)N(C)[C@@H](CCCC)C(=O)N[C@@H](CC(C)C)C(=O)NCCCCC(=O)N[C@@H](Cc2ccc(O)cc2)C(=O)N2CCCC[C@H]2C(=O)N[C@@H](CC(N)=O)C(=O)N2CCC[C@H]2C(=O)N[C@@H](CN)C(=O)N[C@@H](CCC(=O)O)C(=O)N2C[C@H](O)C[C@H]2C(=O)N[C@@H](Cc2c[nH]c3ccccc23)C(=O)N[C@@H](CCN)C(=O)N[C@@H](Cc2cn(CC(=O)O)c3ccccc23)C(=O)N1C [Example 10513] (cyclo([Ava]Y[Pip]NP[Dap]E[Hyp]W[Dab][Trp(1-CH2COOH)][NMeNle][NMeNle]L))

Same assay, conditions: PD-1-Ig (20 nM) / PD-L1-His (10 nM); range classes

SMILES | IC50
CCCC[C@H]1C(=O)N(C)[C@@H](CCCC)C(=O)N[C@@H](CC(C)C)C(=O)N[C@H](C(=O)NCC(N)=O)CCCNCC(=O)N[C@@H](Cc2ccc(O)cc2)C(=O)N(C)[C@@H](C)C(=O)N[C@@H](CC(N)=O)C(=O)N2CCC[C@H]2C(=O)N[C@@H](Cc2cnc[nH]2)C(=O)N[C@@H](CC(C)C)C(=O)N2C[C@H](O)C[C@H]2C(=O)N[C@@H](Cc2c[nH]c3ccccc23)C(=O)NCC(=O)N[C@@H](Cc2c[nH]c3ccccc23)C(=O)N1C [Example 10028] | 100 to 10000 nM
CCCC[C@H]1C(=O)N(C)[C@@H](CCCC)C(=O)N[C@@H](CC(C)C)C(=O)NCCOCC(=O)N[C@@H](Cc2ccccc2)C(=O)N(C)[C@@H](C)C(=O)N[C@@H](CC(C)C)C(=O)N2CCC[C@H]2C(=O)NCC(=O)N[C@@H](CC(C)C)C(=O)N2CCC[C@H]2C(=O)N[C@@H](Cc2ccccc2)C(=O)NCC(=O)N[C@@H](Cc2ccccc2)C(=O)N1C [Example 10500] (cyclo([AEA]F[NMeA]LPGLPFGF[NMeNle][NMeNle]L)) | 100 to 10000 nM
CCCC[C@H]1C(=O)N(C)[C@@H](CCCC)C(=O)N[C@@H](CC(C)C)C(=O)NCCOCC(=O)N[C@@H](Cc2ccc(O)cc2)C(=O)N(C)[C@@H](C)C(=O)N[C@@H](CC(N)=O)C(=O)N2CCC[C@H]2C(=O)N[C@@H](CN)C(=O)N[C@@H](CC(C)C)C(=O)N2C[C@H](O)C[C@H]2C(=O)N[C@@H](Cc2c[nH]c3ccccc23)C(=O)N[C@@H](CCN)C(=O)N[C@@H](Cc2c[nH]c3ccccc23)C(=O)N1C [Example 10501] (cyclo([AEA]Y[NMeA]NP[Dap]L[Hyp]W[Dab]W[NMeNle][NMeNle]L)) | 1 to 9.9 nM
CCCC[C@H]1C(=O)N(C)[C@@H](CCCC)C(=O)N[C@@H](CC(C)C)C(=O)NCCOCC(=O)N[C@@H](Cc2ccc(O)cc2)C(=O)N(C)[C@@H](C)C(=O)N[C@@H](CC(N)=O)C(=O)N2CCC[C@H]2C(=O)N[C@@H](CN)C(=O)N[C@@H](CC(C)C)C(=O)N2C[C@H](O)C[C@H]2C(=O)N[C@@H](Cc2c[nH]c3ccccc23)C(=O)N[C@@H](CCN)C(=O)N[C@@H](Cc2cn(CC(=O)O)c3ccccc23)C(=O)N1C [Example 10502] (cyclo([AEA]Y[NMeA]NP[Dap]L[Hyp]W[Dab][Trp(1-CH2COOH)][NMeNle][NMeNle]L)) | 1 to 9.9 nM
CCCC[C@H]1C(=O)N(C)[C@@H](CCCC)C(=O)N[C@@H](CC(C)C)C(=O)NCCOCC(=O)N[C@@H](Cc2ccc(O)cc2)C(=O)N(C)[C@@H](C)C(=O)N[C@@H](CC(N)=O)C(=O)N2CCC[C@H]2C(=O)N[C@@H](CN)C(=O)N[C@@H](CC(C)C)C(=O)N2C[C@H](O)C[C@H]2C(=O)N[C@@H](Cc2c[nH]c3ccccc23)C(=O)N[C@@H](CO)C(=O)N[C@@H](Cc2cn(CC(=O)O)c3ccccc23)C(=O)N1C [Example 10503] (cyclo([AEA]Y[NMeA]NP[Dap]L[Hyp]WS[Trp(1-CH2COOH)][NMeNle][NMeNle]L)) | 10 to 99 nM
CCCC[C@H]1C(=O)N(C)[C@@H](CCCC)C(=O)N[C@@H](CC(C)C)C(=O)NCCCCC(=O)N[C@@H](Cc2ccc(O)cc2)C(=O)N(C)[C@@H](C)C(=O)N[C@@H](CC(N)=O)C(=O)N2CCC[C@H]2C(=O)N[C@@H](CN)C(=O)N[C@@H](CC(C)C)C(=O)N2C[C@H](O)C[C@H]2C(=O)N[C@@H](Cc2c[nH]c3ccccc23)C(=O)N[C@@H](CCN)C(=O)N[C@@H](Cc2c[nH]c3ccccc23)C(=O)N1C [Example 10505] (cyclo([Ava]Y[NMeA]NP[Dap]L[Hyp]W[Dab]W[NMeNle][NMeNle]L)) | 1 to 9.9 nM
CCCC[C@H]1C(=O)N(C)[C@@H](CCCC)C(=O)N[C@@H](CC(C)C)C(=O)NCCCCC(=O)N[C@@H](Cc2ccc(O)cc2)C(=O)N(C)[C@@H](C)C(=O)N[C@@H](CC(N)=O)C(=O)N2CCC[C@H]2C(=O)N[C@@H](CN)C(=O)N[C@@H](CCC(=O)O)C(=O)N2C[C@H](O)C[C@H]2C(=O)N[C@@H](Cc2c[nH]c3ccccc23)C(=O)N[C@@H](CCN)C(=O)N[C@@H](Cc2cn(CC(=O)O)c3ccccc23)C(=O)N1C [Example 10506] (cyclo([Ava]Y[NMeA]NP[Dap]E[Hyp]W[Dab][Trp(1-CH2COOH)][NMeNle][NMeNle]L)) | 1 to 9.9 nM
CCCC[C@H]1C(=O)N(C)[C@@H](CCCC)C(=O)N[C@@H](CC(C)C)C(=O)N[C@H](C(=O)NCC(N)=O)CCCC(=O)N[C@@H](Cc2ccc(O)cc2)C(=O)N(C)[C@@H](C)C(=O)N[C@@H](CC(N)=O)C(=O)N2CCC[C@H]2C(=O)N[C@@H](CN)C(=O)N[C@@H](CCC(=O)O)C(=O)N2C[C@H](O)C[C@H]2C(=O)N[C@@H](Cc2c[nH]c3ccccc23)C(=O)N[C@@H](CCN)C(=O)N[C@@H](Cc2cn(CC(=O)O)c3ccccc23)C(=O)N1C [Example 10507] (Y[NMeA]NP[Dap]E[Hyp]W[Dab][Trp(1-CH2COOH)][NMeNle][NMeNle]L[Aad]G-NH2; lactam N-14) | 1 to 9.9 nM
CCCC[C@H]1C(=O)N(C)[C@@H](CCCC)C(=O)N[C@@H](CC(C)C)C(=O)N[C@H](C(=O)NCC(N)=O)CCCC(=O)N[C@@H](Cc2ccc(O)cc2)C(=O)N2CCCC[C@H]2C(=O)N[C@@H](CC(N)=O)C(=O)N2CCC[C@H]2C(=O)N[C@@H](CN)C(=O)N[C@@H](CCC(=O)O)C(=O)N2C[C@H](O)C[C@H]2C(=O)N[C@@H](Cc2c[nH]c3ccccc23)C(=O)N[C@@H](CCN)C(=O)N[C@@H](Cc2cn(CC(=O)O)c3ccccc23)C(=O)N1C [Example 10508] (Y[Pip]NP[Dap]E[Hyp]W[Dab][Trp(1-CH2COOH)][NMeNle][NMeNle]L[Aad]G-NH2; lactam N-14) | 10 to 99 nM

The remaining lines, values ahead:

IC50 | SMILES
100 to 10000 nM | CCCC[C@H]1C(=O)N(C)[C@@H](CCCC)C(=O)N[C@@H](CC(C)C)C(=O)NCCCCC(=O)N[C@@H](Cc2ccc(O)cc2)C(=O)N2CCCC[C@H]2C(=O)N[C@@H](CC(=O)O)C(=O)N2CCC[C@H]2C(=O)N[C@@H](Cc2c[nH]cn2)C(=O)N[C@@H](CCCCN)C(=O)N2C[C@H](O)C[C@H]2C(=O)N[C@@H](Cc2c[nH]c3ccccc23)C(=O)N[C@@H](CCCCN)C(=O)N[C@@H](Cc2cn(CC(=O)O)c3ccccc23)C(=O)N1C [Example 10510] (cyclo([Ava]Y[Pip]DPHK[Hyp]WK[Trp(1-CH2COOH)][NMeNle][NMeNle]L))
100 to 10000 nM | CCCC[C@H]1C(=O)N(C)[C@@H](CCCC)C(=O)N[C@@H](CC(C)C)C(=O)NCCC[C@H](N)C(=O)N[C@@H](Cc2ccc(O)cc2)C(=O)N2CCCC[C@H]2C(=O)N[C@@H](CC(N)=O)C(=O)N2CCC[C@H]2C(=O)N[C@@H](CN)C(=O)N[C@@H](CC(C)C)C(=O)N2CCC[C@H]2C(=O)N[C@@H](Cc2c[nH]c3ccccc23)C(=O)N[C@@H](CCN)C(=O)N[C@@H](Cc2cn(CC(=O)O)c3ccccc23)C(=O)N1C [Example 10511] (H-[Orn]Y[Pip]NP[Dap]LPW[Dab][Trp(1-CH2COOH)][NMeNle][NMeNle]L; lactam 1-C)
100 to 10000 nM | CCCC[C@H]1C(=O)N(C)[C@@H](CCCC)C(=O)N[C@@H](CC(C)C)C(=O)NCCCCC(=O)N[C@@H](Cc2ccc(O)cc2)C(=O)N2CCCC[C@H]2C(=O)N[C@@H](CC(N)=O)C(=O)N2CCC[C@H]2C(=O)N[C@@H](CN)C(=O)N[C@@H](CC(C)C)C(=O)N2C[C@H](O)C[C@H]2C(=O)N[C@@H](Cc2c[nH]c3ccccc23)C(=O)N[C@@H](CCN)C(=O)N[C@@H](Cc2cn(CC(=O)O)c3ccccc23)C(=O)N1C [Example 10512] (cyclo([Ava]Y[Pip]NP[Dap]L[Hyp]W[Dab][Trp(1-CH2COOH)][NMeNle][NMeNle]L))
10 to 99 nM | CCCC[C@H]1C(=O)N(C)[C@@H](CCCC)C(=O)N[C@@H](CC(C)C)C(=O)N[C@H](C(=O)NCC(N)=O)CCCC(=O)N[C@@H](Cc2ccc(O)cc2)C(=O)N2CCCC[C@H]2C(=O)N[C@@H](CC(N)=O)C(=O)N2CCC[C@H]2C(=O)N[C@@H](CN)C(=O)N[C@@H](CC(C)C)C(=O)N2C[C@H](O)C[C@H]2C(=O)N[C@@H](Cc2c[nH]c3ccccc23)C(=O)N[C@@H](CCN)C(=O)N[C@@H](Cc2cn(CC(=O)O)c3ccccc23)C(=O)N1C [Example 10515] (Y[Pip]NP[Dap]L[Hyp]W[Dab][Trp(1-CH2COOH)][NMeNle][NMeNle]L[Aad]G-NH2; lactam N-14)
10 to 99 nM | CCCC[C@H]1C(=O)N(C)[C@@H](CCCC)C(=O)N[C@@H](CC(C)C)C(=O)N[C@H](C(=O)NCC(N)=O)CCCC(=O)N[C@@H](Cc2ccc(O)cc2)C(=O)N(C)[C@@H](C)C(=O)N[C@@H](CC(=O)O)C(=O)N2CCC[C@H]2C(=O)N[C@@H](Cc2c[nH]cn2)C(=O)N[C@@H](CCCCN)C(=O)N2C[C@H](O)C[C@H]2C(=O)N[C@@H](Cc2c[nH]c3ccccc23)C(=O)N[C@@H](CCCCN)C(=O)N[C@@H](Cc2cn(CC(=O)O)c3ccccc23)C(=O)N1C [Example 10516] (Y[NMeA]DPHK[Hyp]WK[Trp(1-CH2COOH)][NMeNle][NMeNle]L[Aad]G-NH2; lactam N-14)
